Laboratory results from US6046228A, “Anti-viral pharmaceutical compositions containing saturated 1,2-dithiaheterocyclic compounds and uses thereof” (priority 1999, dated 2000).
pEC50: −log10 of the molar value.

Assays:
HIV-1 p7NC protein = molecular target: T1, HIV-1 p7NC protein (Human immunodeficiency virus type 1 group M subtype B, UniProt P04591); experiment: TSQ zinc release assay from p7NC; assay type: biochemical; settings: 10 μM, 2 hours, FIG. 1(B), in words
T1 construct: recombinant HIV-1 p7NC protein
Experimental: Fluorescence measurements of the Trp^37 residue in the C-terminal zinc finger of the recombinant HIV-1 p7NC protein were performed as previously described (Rice et al., Science 270:1194, 1995). The p7NC protein was prepared at 20 μg/ml in 10 mM sodium phosphate buffer (pH 7.0), treated with 25 μM of each compound, then after indicated time intervals the samples were diluted 1/10 in 10 mM sodium phosphate buffer (pH 7.0) and the fluorescence intensity measured. The excitation and emission wavelengths utilized with the Shimadzu RF5000 spectrofluorimeter were 280 nm and 351 nm, respectively. In an alternate assay, the zinc-selective fluorescent probe N-(6-methoxy-8quinolyl-)-p-toluenesulfonamide (TSQ, Molecular Probes, Eugene, Oreg.) originally described by Fredrickson (J. Neurosci. Meth. 20:91, 1987) was utilized to measure zinc released from the p7NC protein in vitro. Briefly, 2 μM recombinant HIV-1 p7NC protein in 10 mM sodium phosphate buffer, pH 7.0, 10% glycerol was treated with 10 μM 624151 ([…] total volume in 96-well plates), and the time-dependent increase in fluorescence was measured on a Labsystems Fluoroskan II (360 nm excitation filter and 460 nm emission filter) over a period of 2 hours. […] Virus pellets were resolved by non-reducing SDS-PAGE and analyzed by immunoblot using monospecific rabbit antisera to the purified p7NC protein. […]

HIV-1IIIB = experiment: XTT cytopathicity assay, HIV-1IIIB; assay type: cell-based
Experimental: (§1) Initial anti-HIV screening was performed with CEM-SS cells and HIV-1RFusing the XTT cytoprotection assay as previously described (Weislow et al., J. National Cancer Inst. 81: 577-586, (1989)). HIV-1 isolates included common laboratory stains (RF, IIIB and MN), as well as a panel of HIV-1 clinical isolates (Cushman et al., J. Med. Chem. 37: 3040-3050, (1994)). The pyridone-resistant HIV-1A17 isolate (Nunberg et al., J. Virol., 65: 4887-4892 (1991)) was obtained from Emilio Emini at Merck Sharpe and Dohme Laboratories. Phytohemagglutinin-stimulated human peripheral blood lymphocytes (PBLs) and fresh monocyte-macrophage (Mono/MF) cultures were prepared and utilized in antiviral assays as previously described (Rice et al., Proc. Nat'l. Academy Science, USA 90: 9721-9724, (1993)); (Cushman et al., J. Med. Chem. 37: 3040-3050, (1994)). EC50 values for these cultures indicate the drug concentration that provided a 50% reduction in viral p24 production. […] The compounds can be synthesized according to the teachings of Singh et al., Sulfur Letters 8: 107-114, (1988). The 4,5-cis-dihydroxy(1,1-dioxy-1,2,-dithiohexane) compound (NSC 624151) has been abbreviated as 624151 for convenience. MT-2, MT-4, U1, HeLa-CD4-LTR-β-gal and 174xCEM cells were obtained from the AIDS Research and Reference Program (National Institute of Allergy and Infectious Disease, National Institutes of Health, Bethesda, Md. USA), as were the HIV-2MS and the AZT-resistant HIV-1G910-6 isolates.
(§2) ^a Anti-HIV studies utilizing lymphocytederived cell lines were
(§3) performed using the XTT cytopathicity assay, while antiviral assays

HIV-1 BAKI(SI) = experiment: antiviral assay in PBL (p24), clinical isolate BAKI; assay type: cell-based; settings: Human immunodeficiency virus 1, cell-free p24
Experimental: as §1, with “MT-2, MT-4, U1, HeLa-CD4-LTR-β-gal and 174xCEM cells were obtained from the AIDS Research and Reference Program (National Institute of Allergy and Infectious Disease, National Institutes of Health, Bethesda, Md. USA), as were the HIV-2MS and the AZT-resistant HIV-1G910-6 isolates.” left out

HIV-1NL4-3 V1081 = experiment: XTT cytopathicity assay, NL4-3 site-directed RT mutant; assay type: cell-based; settings: MT-2, NL4-3 V1081
Experimental: as §1, §2, §3

HIV-1NL4-3 4XAZT = experiment: as above; assay type: cell-based; settings: MT-2, NL4-3 4XAZT
Experimental: as §1, §2, §3

HIV-1NL4-3 A986 = experiment: as above; assay type: cell-based; settings: MT-2, NL4-3 A986
Experimental: as §1, §2, §3

HIV-1NL4-3 Y181C = experiment: as above; assay type: cell-based; settings: MT-2, NL4-3 Y181C
Experimental: as §1, §2, §3

HIV-1NL4-3 L74V = experiment: as above; assay type: cell-based; settings: MT-2, NL4-3 L74V
Experimental: as §1, §2, §3

HIV-1NL4-3 K103N = experiment: as above; assay type: cell-based; settings: MT-2, NL4-3 K103N
Experimental: as §1, §2, §3

HIV-1NL4-3 V1061 = experiment: as above; assay type: cell-based; settings: MT-2, NL4-3 V1061
Experimental: as §1, §2, §3

HIV-1NL4-3 Y188C = experiment: as above; assay type: cell-based; settings: MT-2, NL4-3 Y188C
Experimental: as §1, §2, §3

HIV-1NL4-3 V179D = experiment: as above; assay type: cell-based; settings: MT-2, NL4-3 V179D
Experimental: as §1, §2, §3

## O=S1(=O)C[C@H](O)[C@H](O)CS1 (relative stereo) [NSC 624151, cis-1,1-dioxo[1,2]dithiane-4,5-diol]
HIV-1 p7NC protein
  zinc ejection from p7NC measured with TSQ: promote zinc ejection from the p7NC protein in vitro was confirmed
HIV-1IIIB; Human immunodeficiency virus 1, AA5(B, EBV+), HIV-1IIIB
  pEC50: 4.59
HIV-1IIIB; Human immunodeficiency virus 1, CEM-SS, CEM-SS (T), HIV-1IIIB, cell type panel
  pEC50: 5.21
HIV-1IIIB; Human immunodeficiency virus 1, H9(T), HIV-1IIIB
  pEC50: 4.89
HIV-1IIIB; Human immunodeficiency virus 1, MT-2(T), HIV-1IIIB
  pEC50: 4.73
HIV-1IIIB; Human immunodeficiency virus 1, U-937, U937(M), HIV-1IIIB
  EC50: 3.2e-06 M
HIV-1IIIB; Human immunodeficiency virus 1, CEM-SS, IIIB, Laboratory HIV-1
  pEC50: 4.68
HIV-1IIIB; in words
  inhibition of infection by HIV-1IIIB in all cellular phenotypes tested: inhibited by 624151 in all cellular phenotypes tested
HIV-1 BAKI(SI)
  pEC50: 4.72
HIV-1NL4-3 V1081
  pEC50: 4.70
HIV-1NL4-3 4XAZT
  pEC50: 4.97
HIV-1NL4-3 A986
  pEC50: 4.58
HIV-1NL4-3 Y181C
  pEC50: 4.68
HIV-1NL4-3 L74V
  pEC50: 4.70
HIV-1NL4-3 K103N
  pEC50: 4.76
HIV-1NL4-3 V1061
  pEC50: 4.68
HIV-1NL4-3 Y188C
  pEC50: 4.71
HIV-1NL4-3 V179D
  pEC50: 4.69
